Assays:
Assay type in all cases: cell-based
[1] = tested on: ampkα1−/−; ampkα2−/− (AMPK−/−) mouse embryonic fibroblasts; assay: Circadian reverbα and dbp expression by quantitative PCR in serum-stimulated MEFs lacking AMPK; settings: 25 mM glucose supplemented with 1 mM AICAR
Experimental: (§1) (A) Unsynchronized paired wild type (AMPK^+/+) or ampkα1^−/−; ampkα2^−/− (AMPK−/−) mouse embryonic fibroblasts were stimulated by 2 hour exposure to 50% horse serum followed by transfer to media containing 25 mM glucose, 0.5 mM glucose or 25 mM glucose supplemented with 1 mM AICAR. Quantitative PCR analysis was performed using cDNA samples collected at the indicated times following stimulation. Data represent the mean of two independent experiments, each analyzed in triplicate. (B) Fibroblasts stably expressing Bmal1-luciferase were cultured in media containing the indicated amounts of glucose with or without 2 mM AICAR. Typical results of continuous monitoring of luciferase activity are shown. (C and D) Quantitation of the circadian period (C) and amplitude (D) of Bmal1-driven luciferase activity from experiments performed as described in (B). Data in (C) and (D) represent the mean±standard deviation for four samples per condition. […]
(§2) FIG. 4A-B show disruption of AMPK alters circadian rhythms in MEFs. […] Quantitative PCR analysis was performed using cDNA samples prepared from lysates collected at the indicated times following stimulation. Data represent the mean±standard deviation of two or three independent experiments each analyzed in triplicate. […]

[2] = tested on: Fibroblasts stably expressing Bmal1-luciferase; assay: Continuous monitoring of Bmal1-driven luciferase activity in fibroblasts; settings: media with 2 mM AICAR vs 25 mM glucose
Experimental: (A) Unsynchronized paired wild type (AMPK^+/+) or ampkα1^−/−; ampkα2^−/− (AMPK−/−) mouse embryonic fibroblasts were stimulated by 2 hour exposure to 50% horse serum followed by transfer to media containing 25 mM glucose, 0.5 mM glucose or 25 mM glucose supplemented with 1 mM AICAR. Quantitative PCR analysis was performed using cDNA samples collected at the indicated times following stimulation. Data represent the mean of two independent experiments, each analyzed in triplicate. (B) Fibroblasts stably expressing Bmal1-luciferase were cultured in media containing the indicated amounts of glucose with or without 2 mM AICAR. Typical results of continuous monitoring of luciferase activity are shown. (C and D) Quantitation of the circadian period (C) and amplitude (D) of Bmal1-driven luciferase activity from experiments performed as described in (B). Data in (C) and (D) represent the mean±standard deviation for four samples per condition. ANOVA analysis indicated a significant difference between categories. ** P<0.01 vs. samples cultured in 25 mM glucose in Scheffe's post-hoc analysis.
The Bmal1 promoter is repressed by REVERBα. Therefore, the effects of reducing glucose availability on circadian rhythms was examined using fibroblasts stably expressing luciferase under the control of a Bmal1 promoter. […]

[3] = tested on: wild type (AMPK+/+) mouse embryonic fibroblasts; assay: Circadian reverbα and dbp expression by quantitative PCR in serum-stimulated wild type fibroblasts; settings: 25 mM glucose supplemented with 1 mM AICAR, after 2 hour 50% horse serum, compared with 0.5 mM glucose
Experimental: as §1, §2

**Q.** With `NC(=O)c1ncn([C@@H]2O[C@H](CO)[C@@H](O)[C@H]2O)c1N` [AICAR, 5-amino-4-imidazolecarboxamide riboside] as the molecule, how does the “expression of reverbα and dbp” value [1] read?
**A.** neither glucose deprivation nor AICAR treatment affected the expression of reverbα and dbp

**Q.** And the “amplitude of Bmal1-luciferase expression” value [2]?
**A.** decreased the amplitude of Bmal1-luciferase expression

**Q.** What about the “amplitude of circadian reverbα and dbp expression” value [3] of the same molecule?
**A.** mimicked the effects of glucose deprivation
